Square brackets hold non-standard residues; d marks the D form. Peptide text beside a SMILES is read from it. d(hArg(Et2)) = CCN=C(NCC)NCCCC[C@@H](N)C(=O)O; hArg(Et2) = CCN=C(NCC)NCCCC[C@H](N)C(=O)O; dPhe(4-Cl) = N[C@H](Cc1ccc(Cl)cc1)C(=O)O; d2Nal = N[C@H](Cc1ccc2ccccc2c1)C(=O)O; dCit = NC(=O)NCCC[C@@H](N)C(=O)O; d3Pal = N[C@H](Cc1cccnc1)C(=O)O
How the values were obtained:
Lhb gene expression = Lhb gene expression by qRT-PCR in LβT2 cells; format: cell-based, mouse; settings: 1 µM GnRH + 1 µM antagonist, 24 h, n = 4
Method: LβT2 cells were seeded in 24-well plates (2 × 10^5 cells/well) and cultured for 24 h in DMEM supplemented with 10% Charcoal Stripped FBS, 4.5 g/L glucose, 100 IU/mL penicillin, 0.1 mg/mL streptomycin, and 1 mM glutamine (all from Sigma-Aldrich) before treatments. […] Samples were lysed for RNA extraction using TRIzolTM Reagent (Invitrogen) and equal amounts of total RNA were used for cDNA synthesis performed using the iScript reverse transcriptase (BioRad), as previously described. qRT-PCR was carried out in triplicates on the CFX96TM Real-Time PCR Detection System (BioRad) using the following primers pairs: [NT] for mouse Lhb; [NT] for mouse Gapdh. Primer sequences were drawn using the Mus musculus Lhb (NCBI Reference Sequence: NM_008497.2) and Gapdh (NM_008084.3) mRNAs as templates. Gene expression of Lhb was normalized to mouse Gapdh gene expression using the 2^-ΔΔCt method.

GnRH receptor (GnRHR) [1] = biological target: T1, GnRH receptor (GnRHR) (Homo sapiens, UniProt P30968); assay: BRET measurement of GnRH-induced intracellular Ca2+ increase in SH-SY5Y/GnRHR cells; format: cell-based; parameters: HA (hemagglutinin); expressed in transfected cells; settings: means±SEM, n=6
T1 sequence (P30968 1-328): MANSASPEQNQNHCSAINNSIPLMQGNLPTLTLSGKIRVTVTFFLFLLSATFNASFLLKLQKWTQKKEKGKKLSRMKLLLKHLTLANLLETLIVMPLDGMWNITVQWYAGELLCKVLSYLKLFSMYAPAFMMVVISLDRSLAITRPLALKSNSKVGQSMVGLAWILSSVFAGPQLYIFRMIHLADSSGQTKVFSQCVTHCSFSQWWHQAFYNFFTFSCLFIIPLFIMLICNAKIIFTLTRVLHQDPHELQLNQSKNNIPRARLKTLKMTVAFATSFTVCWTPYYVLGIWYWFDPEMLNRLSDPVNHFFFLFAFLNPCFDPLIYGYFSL
Method: (§1) Different transfection protocols were followed, depending on the endpoint to be measured. For BRET experiments, 3 × 10^4 cells were transiently transfected using vectors expressing the cAMP-CAMYEL or the aequorin-Ca^2+ BRET biosensor-encoding cDNA [59], as appropriate, together with the GnRHR-HA-encoding vector. Transfections were performed in a 96-well plate using the Metafectene PRO reagent (Biontex, München, Germany), as previously described. 100 ng of the receptor-encoding vector + 100 ng of the BRET biosensor-encoding vector were used for co-transfecting HEK293 cells, while SH-SY5Y cells were co-transfected using 200 ng of the receptor-encoding vector + 100 ng of the BRET biosensor-encoding vector. 200 ng of the aequorin-Ca^2+ BRET biosensor-encoding cDNA were used for transfecting LβT2 cells. Each sample was prepared in duplicate, cultured for 48 h and serum-starved over-night before experiments.
(§2) To evaluate Ca^2+ increase, cells were incubated in Hank’s Balanced Salt Solution (HBSS) with Ca^2+ and Mg^2+, 1 mM Hepes and 5 µM Coelenterazine H (NanoLight Technologies, a division of Prolume, Ltd., Pinetop, AZ, USA), for 45 minutes, together with Cetrorelix, Ganirelix, Teverelix or vehicle, as appropriate. […] The EC50 was extrapolated from the curve obtained from each cell line. Cells treated by 5 µM of the sarco/endoplasmic reticulum Ca^2+ ATPase enzyme inhibitor, thapsigargin (Tocris Bioscience), served as positive control. Treatment by the vehicle (HBSS) was the negative control and used as a normalizer.
(§3) BRET experiments were performed using a CLARIOstar plate reader equipped by a monocromator (BMG Labtech, Ortenberg, Germany), as previously described.
(§4) Data were plotted on graphs as means ± standard error of means (SEM). The kinetics of intracellular Ca^2+ increase was represented by the BRET biosensor emission after background subtraction (vehicle). […] Data distributions were analyzed by D’Agostino and Pearson normality tests and inhibition of intracellular Ca^2+ increase by different concentrations of antagonist were compared using two-way analysis of variance (ANOVA), followed by Bonferroni post-test or Kruskal-Wallis and proper post-test. cAMP accumulation was represented as acceptor:donor emission ratio (induced BRET changes) after basal subtraction (untreated cells). Dose-response curves were obtained by data interpolation using non-linear regressions and normalized as percentage of the maximal response. EC50s, as well as half-maximal inhibitory concentrations (IC50), were compared by t-test or Mann–Whitney U test, while results obtained by Western blotting and qRT-PCR data were compared by one-way ANOVA followed by Bonferroni post-test. Statistical differences were considered as significant for p < 0.05. These analyses were performed using the GraphPad Prism software (GraphPad Software Inc., San Diego, CA, USA).

GnRH receptor (GnRHR) [2] = biological target: T1, GnRH receptor (GnRHR); assay: BRET (CAMYEL) measurement of cAMP accumulation in SH-SY5Y/GnRHR cells; format: cell-based; parameters: HA (hemagglutinin); expressed in transfected cells
Method: (§5) Different transfection protocols were followed, depending on the endpoint to be measured. For BRET experiments, 3 × 10^4 cells were transiently transfected using vectors expressing the cAMP-CAMYEL or the aequorin-Ca^2+ BRET biosensor-encoding cDNA [59], as appropriate, together with the GnRHR-HA-encoding vector. Transfections were performed in a 96-well plate using the Metafectene PRO reagent (Biontex, München, Germany), as previously described. […]
(§6) cAMP accumulation was measured in cells transiently expressing both the BRET-based cAMP biosensor CAMYEL [64] and GnRHR. […] BRET signals were detected at 475 and 535 nm wavelengths upon the addition of 5 µM Coelenterazine H (NanoLight Technologies). […]
as §3
(§7) Data were plotted on graphs as means ± standard error of means (SEM). […] Data distributions were analyzed by D’Agostino and Pearson normality tests and inhibition of intracellular Ca^2+ increase by different concentrations of antagonist were compared using two-way analysis of variance (ANOVA), followed by Bonferroni post-test or Kruskal-Wallis and proper post-test. cAMP accumulation was represented as acceptor:donor emission ratio (induced BRET changes) after basal subtraction (untreated cells). […]

GnRH receptor (GnRHR) [3] = biological target: T1, GnRH receptor (GnRHR); assay: BRET measurement of GnRH-induced intracellular Ca2+ increase in HEK293/GnRHR cells; format: cell-based; parameters: HA (hemagglutinin); expressed in transfected cells; host or cells: HEK293 (transient co-transfection with BRET biosensor); settings: means ± SEM, n = 6
Method: as §1, §2, §3, §4

GnRH receptor (GnRHR) [4] = biological target: T1, GnRH receptor (GnRHR); assay: BRET (CAMYEL) measurement of cAMP accumulation in HEK293/GnRHR cells; format: cell-based; parameters: HA (hemagglutinin); expressed in transfected cells; host or cells: HEK293 (transient co-transfection with BRET biosensor)
Method: as §5, §6, §3, §7

[5] = 3xEC50 GnRH + 100 pM antagonist
[6] = 3xEC50 GnRH + 100 nM antagonist
[7] = 3 × EC50 GnRH + 1 pM antagonist
[8] = 3 × EC50 GnRH + 10 pM antagonist
[9] = 3 × EC50 GnRH + 100 pM antagonist
[10] = 3 × EC50 GnRH + 1 nM antagonist
[11] = 3 × EC50 GnRH + 75 nM antagonist
[12] = 3 × EC50 GnRH + 100 nM antagonist
[13] = 3 × EC50 GnRH + 1 µM antagonist
[14] = read-out: IC50 of inhibition of GnRH-induced cAMP accumulation

| SMILES | effect on GnRH-induced Lhb gene expression (Lhb gene expression) | AUC of the kinetics of intracellular Ca2+ response (GnRH receptor (GnRHR) [1]; 3xEC50 GnRH + 1 pM antagonist) | AUC of the kinetics of intracellular Ca2+ response (GnRH receptor (GnRHR) [1]; 3xEC50 GnRH + 10 pM antagonist) | AUC of the kinetics of intracellular Ca2+ response (GnRH receptor (GnRHR) [1]; [5]) | AUC of the kinetics of intracellular Ca2+ response (GnRH receptor (GnRHR) [1]; 3xEC50 GnRH + 1 nM antagonist) | AUC of the kinetics of intracellular Ca2+ response (GnRH receptor (GnRHR) [1]; 3xEC50 GnRH + 10 nM antagonist) | AUC of the kinetics of intracellular Ca2+ response (GnRH receptor (GnRHR) [1]; 3xEC50 GnRH + 20 nM antagonist) | AUC of the kinetics of intracellular Ca2+ response (GnRH receptor (GnRHR) [1]; [6]) | AUC of the kinetics of intracellular Ca2+ response (GnRH receptor (GnRHR) [1]; 3xEC50 GnRH + 1 uM antagonist) | AUC of the kinetics of intracellular Ca2+ response (GnRH receptor (GnRHR) [3]; [7]) | AUC of the kinetics of intracellular Ca2+ response (GnRH receptor (GnRHR) [3]; [8]) | AUC of the kinetics of intracellular Ca2+ response (GnRH receptor (GnRHR) [3]; [9]) | AUC of the kinetics of intracellular Ca2+ response (GnRH receptor (GnRHR) [3]; [10]) | AUC of the kinetics of intracellular Ca2+ response (GnRH receptor (GnRHR) [3]; [11]) | AUC of the kinetics of intracellular Ca2+ response (GnRH receptor (GnRHR) [3]; [12]) | AUC of the kinetics of intracellular Ca2+ response (GnRH receptor (GnRHR) [3]; [13]) | other results |
| --- | --- | --- | --- | --- | --- | --- | --- | --- | --- | --- | --- | --- | --- | --- | --- | --- | --- |
| CC(=O)N[C@H](Cc1ccc2ccccc2c1)C(=O)N[C@H](Cc1ccc(Cl)cc1)C(=O)N[C@H](Cc1cccnc1)C(=O)N[C@@H](CO)C(=O)N[C@@H](Cc1ccc(O)cc1)C(=O)N[C@H](CCCNC(N)=O)C(=O)N[C@@H](CC(C)C)C(=O)N[C@@H](CCCNC(=N)N)C(=O)N1CCC[C@H]1C(=O)N[C@H](C)C(N)=O [Cetrorelix] (Ac-[d2Nal][dPhe(4-Cl)][d3Pal]SY[dCit]LRP[dA]-NH2) | inhibited | 105586±22643 | 103653±11947 | 118914±31558 | 81413±26479 | 81282±26769 | 58382±8030 | 46414±15714 | 13355±4381 | 78,113 ± 29,979 | 124,981 ± 33,684 | 126,243 ± 34,982 | 71,127 ± 25,268 | 18,632 ± 4423 | 8946 ± 3296 | 3264 ± 3024 | IC50 (GnRH receptor (GnRHR) [2]): 1.56 ± 2.49 nM; IC50 (GnRH receptor (GnRHR) [4]): 0.84 nM |
| CCN=C(NCC)NCCCC[C@H](NC(=O)[C@H](CC(C)C)NC(=O)[C@@H](CCCCNC(=NCC)NCC)NC(=O)[C@H](Cc1ccc(O)cc1)NC(=O)[C@H](CO)NC(=O)[C@@H](Cc1cccnc1)NC(=O)[C@@H](Cc1ccc(Cl)cc1)NC(=O)[C@@H](Cc1ccc2ccccc2c1)NC(C)=O)C(=O)N1CCC[C@H]1C(=O)N[C@H](C)C(N)=O [Ganirelix] (Ac-[d2Nal][dPhe(4-Cl)][d3Pal]SY[d(hArg(Et2))]L[hArg(Et2)]P[dA]-NH2; N-terminus and C-terminus assumed) | inhibited | 93877±14161 | 113983±12281 | 116076±24125 | 75460±15613 | 83904±19566 | 52343±8665 | 82720±17902 | 6523±3056 | 76,189 ± 18,564 | 91,896 ± 21,766 | 101,943 ± 27,388 | 66,665 ± 16,035 | 43,870 ± 4193 | 34,734 ± 13,731 | 3346 ± 2977 | IC50 (GnRH receptor (GnRHR) [2]; [14]): 16.6 ± 3.76 nM; AUC of the kinetics of intracellular Ca2+ response (GnRH receptor (GnRHR) [3]; 3 × EC50 GnRH + 10 nM antagonist): 73,164 ± 16,237; IC50 (GnRH receptor (GnRHR) [4]; [14]): 0.61 nM |

Reference: paper PMC6888270 (International Journal of Molecular Sciences, 2019)
